Reference: patent US20020026053A1, “Novel 3-(substituted) -2- indolinones compounds and use thereof as inhibitors of protein kinase activity” (priority 1997, published 2002)

Target: T1, EGFR (Homo sapiens, UniProt P00533)
T1 construct: endogenous in cells; host or cells: A431 cells (lysate, captured with SUMO1 anti-EGFR antibody)
Test: Biochemical EGFR Assay
Set-up: concentration or dose not given beside the values
Experimental: This assay measures the in vitro kinase activity of EGFR using ELISA.
1. Corning 96-well Elisa plates (Corning Catalog No. 25805-96).
2. SUMO1 monoclonal anti-EGFR antibody (Biochemistry Lab, SUGEN, Inc.).
3. PBS (Dulbecco's Phosphate-Buffered Saline, Gibco Catalog No. 450-1300EB).
6. A431 cell lysate (Screening Lab, SUGEN, Inc.)
9. Adenosine-5′-triphosphate (ATP, from Equine muscle, Sigma Cat. No. A-5394).
Prepare a 1.0 mM solution in dH2O. This reagent should be made up immediately prior to use and kept on ice.
Prepare a 1.0 M stock solution in dH2O.
11. ATP/MnCl2 phosphorylation mix
This reagent should be prepared immediately before use and kept on ice
12. NUNC 96-well V bottom polypropylene plates (Applied Scientific Cat. No. AS-72092).
13. Ethylenediaminetetraacetic acid (EDTA)
Prepare 200 mM working solution in dH2O. Adjust to pH 8.0 with 10 N NaOH.
14. Rabbit polyclonal anti-phosphotyrosine serum (Biochemistry Lab, SUGEN, Inc.)
15. Goat anti-rabbit IgG peroxidase conjugate (Biosource Cat. No. ALI0404)
16. ABTS (2,2′-azino-bis(3-ethylbenzthiazoline-6-sulfonic acid), Sigma Cat. No. A-1888).
Mix first two ingredients in about 900 ml dH2O, adjust pH to 4.0 with phosphoric acid. Add ABTS, cover, let sit about 0.5 hr., filter. The solution should be kept in the dark at 4° C. until ready to use.
17. Hydrogen peroxide 30% solution (Fisher Cat. No. H325)
Mix 15 ml ABTS solution and 2.0 μl H2O2. Prepare 5 minutes before use.
1. Coat Corning 96 well ELISA plates with 0.5 μg SUMO1 in 100 μl PBS per well, store overnight at 4° C.
2. Remove unbound SUMO1 from wells by inverting plate to remove liquid. Wash 1× with dH2O. Pat the plate on a paper towel to remove excess liquid.
3. Add 150 μl of Blocking Buffer to each well. Incubate for 30 min. at room temperature with shaking.
4. Wash plate 3× with deionized water, then once with TBST. Pat plate on a paper towel to remove excess liquid and bubbles.
5. Dilute lysate in PBS (7 μg lysate/100 μl PBS)
6. Add 100 μl of diluted lysate to each well. Shake at room temperature for 60 min.
7. Wash plates as described in 4, above.
8. Add 120 μl TBS to ELISA plate containing captured EGFR.
9. Dilute test compound 1:10 in TBS in 96-well polypropylene plates (ie. 10 μl compound+90 μl TBS).
10. Add 13.5 μl diluted test compound to ELISA plate.
11. Incubate for 30 minutes while shaking at room temperature.
13. After 5 minutes, stop reaction by adding 16.5 μl of 200 mM EDTA (pH 8.0) to each well, shaking continuously. After the EDTA has been added, shake for 1 min.
14. Wash 4× with deionized water, twice with TBST.
15. Add 100 μl anti-phosphotyrosine (1:3000 dilution in TBST) per well. Incubate 30-45 min. at room temperature, with shaking.
16. Wash as described in 4, above.
17. Add 100 μl Biosource Goat anti-rabbit IgG peroxidase conjugate (1:2000 dilution in TBST) to each well. Incubate 30 min. at room temperature, with shaking.
18. Wash as described in 4, above.
19. Add 100 μl of ABTS/H2O2 solution to each well.
20. Incubate 5 to 10 minutes with shaking. Remove any bubbles.
21. If necessary stop reaction with the addition of 100 μl 0.2 M HCl per well.
22. Read assay on Dynatech MR7000 ELISA reader. Test Filter: 410 nM Reference Filter: 630 nM

T1 sequence (P00533 25-1210): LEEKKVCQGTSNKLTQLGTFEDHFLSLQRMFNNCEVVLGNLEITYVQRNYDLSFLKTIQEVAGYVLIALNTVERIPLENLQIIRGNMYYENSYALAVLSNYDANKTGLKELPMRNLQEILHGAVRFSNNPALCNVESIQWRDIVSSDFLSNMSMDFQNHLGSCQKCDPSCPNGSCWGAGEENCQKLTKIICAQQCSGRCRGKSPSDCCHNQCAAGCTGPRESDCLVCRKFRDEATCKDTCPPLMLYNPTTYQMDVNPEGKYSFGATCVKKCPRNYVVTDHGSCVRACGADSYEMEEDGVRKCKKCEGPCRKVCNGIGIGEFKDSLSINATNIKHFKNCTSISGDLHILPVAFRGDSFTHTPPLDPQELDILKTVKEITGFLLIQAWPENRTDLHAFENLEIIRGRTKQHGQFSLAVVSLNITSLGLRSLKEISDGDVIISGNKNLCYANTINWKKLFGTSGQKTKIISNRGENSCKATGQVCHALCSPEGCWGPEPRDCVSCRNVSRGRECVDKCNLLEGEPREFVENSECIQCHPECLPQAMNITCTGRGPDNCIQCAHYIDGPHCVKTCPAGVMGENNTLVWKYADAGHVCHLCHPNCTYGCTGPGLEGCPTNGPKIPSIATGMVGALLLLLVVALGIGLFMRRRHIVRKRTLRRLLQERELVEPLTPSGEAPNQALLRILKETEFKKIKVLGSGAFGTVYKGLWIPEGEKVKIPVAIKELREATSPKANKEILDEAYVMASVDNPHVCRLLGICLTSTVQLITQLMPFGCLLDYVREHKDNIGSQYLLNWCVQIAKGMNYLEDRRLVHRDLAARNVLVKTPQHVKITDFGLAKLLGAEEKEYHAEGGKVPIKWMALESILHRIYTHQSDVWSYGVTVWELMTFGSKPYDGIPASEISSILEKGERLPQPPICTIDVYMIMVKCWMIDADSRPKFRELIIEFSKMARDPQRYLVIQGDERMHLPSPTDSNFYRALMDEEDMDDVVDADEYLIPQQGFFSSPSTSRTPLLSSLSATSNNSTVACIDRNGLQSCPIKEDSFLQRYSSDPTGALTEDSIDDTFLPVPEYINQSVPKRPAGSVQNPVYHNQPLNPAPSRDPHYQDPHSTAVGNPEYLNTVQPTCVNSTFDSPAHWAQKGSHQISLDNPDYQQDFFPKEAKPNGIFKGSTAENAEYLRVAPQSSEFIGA

Row | Structure (SMILES) | Biochem EGFR % Inhibition (P.167)
1 | Cc1c(Br)cc(Br)c2c1C(=Cc1ccc(F)cc1)C(=O)N2 [10717/H05] | −2.0%
2 | Cc1c(Br)cc(Br)c2c1C(=Cc1c[nH]c3ccccc13)C(=O)N2 [10717/H06] | −16.8%
3 | Cc1ccc(C=C2C(=O)Nc3c(Br)cc(Br)c(C)c32)s1 [10717/H07] | 91.2%
4 | Cc1c(Br)cc(Br)c2c1C(=Cc1ccc(Br)cc1)C(=O)N2 [10717/H08] | 33.4%
5 | Cc1c(Br)cc(Br)c2c1C(=Cc1ccc[nH]1)C(=O)N2 [10717/H09] | 5.4%
6 | COc1cccc(O)c1C=C1C(=O)Nc2c(Br)cc(Br)c(C)c21 [10717/H10] | 0.5%
7 | Cc1[nH]c(C=C2C(=O)Nc3c(Br)cc(Br)c(C)c32)c(Br)c1Br [10717/H11] | 55.6%
8 | Cc1c(Br)cc(Br)c2c1C(=Cc1ccc(Br)o1)C(=O)N2 [10726/H05] | 2.2%
9 | Cc1cn(C)cc1C=C1C(=O)Nc2c(Br)cc(Br)c(C)c21 [10726/H06] | −9.2%
10 | Cc1c(Br)cc(Br)c2c1C(=Cc1cc(O)c3c(c1O)CCCC3)C(=O)N2 [10726/H07] | 31.2%
11 | Cc1c(Br)cc(Br)c2c1C(=C1C(=O)Nc3ccc(F)cc31)C(=O)N2 [10726/H08] | −16.6%
12 | Cc1c(Br)cc(Br)c2c1C(=C1C(=O)Nc3ccccc31)C(=O)N2 [10726/H09] | −0.1%
13 | CCc1ccc(C=C2C(=O)Nc3c(Br)cc(Br)c(C)c32)s1 [10726/H10] | 12.0%
14 | COc1ccc(C=C2C(=O)Nc3c(Br)cc(Br)c(C)c32)cc1 [10726/H11] | 1.5%
15 | CCN(CC)c1ccc(C=C2C(=O)Nc3c(Br)cc(Br)c(C)c32)cc1 [10727/H02] | −37.1%
16 | CCc1cc(CC)c(C=C2C(=O)Nc3c(Br)cc(Br)c(C)c32)[nH]1 [10727/H03] | 4.5%
17 | Cc1c(Br)cc(Br)c2c1C(=Cc1cc(Cl)cc(Br)c1O)C(=O)N2 [10727/H04] | 19.2%
18 | Cc1c(Br)cc(Br)c2c1C(=Cc1ccccc1Sc1ccc(Cl)cc1)C(=O)N2 [10727/H05] | 0.4%
19 | Cc1c(Br)cc(Br)c2c1C(=Cc1cc3c(cc1Cl)OCO3)C(=O)N2 [10727/H06] | −35.8%
20 | Cc1c(Br)cc(Br)c2c1C(=Cc1coc3ccccc3c1=O)C(=O)N2 [10727/H07] | −17.3%
21 | Cc1c(Br)cc(Br)c2c1C(=Cc1cccc(C#N)c1)C(=O)N2 [10727/H08] | −8.0%
22 | Cc1c(Br)cc(Br)c2c1C(=Cc1ccc(C#N)cc1)C(=O)N2 [10727/H09] | −6.1%
23 | Cc1c(Br)cc(Br)c2c1C(=Cc1cc(O)ccc1O)C(=O)N2 [10727/H10] | 83.6%
24 | COc1cccc(C=C2C(=O)Nc3c(Br)cc(Br)c(C)c32)c1OC [10727/H11] | −3.5%
25 | COc1ccc(OC)c(C=C2C(=O)Nc3c(Br)cc(Br)c(C)c32)c1 [10728/H02] | −36.6%
26 | COc1cccc(OC)c1C=C1C(=O)Nc2c(Br)cc(Br)c(C)c21 [10728/H03] | 3.5%
27 | COc1cc(C=C2C(=O)Nc3c(Br)cc(Br)c(C)c32)cc(OC)c1 [10728/H04] | −0.6%

Row | Structure (SMILES) | Biochem EGFR % Inhibition (P.167)
28 | Cc1c(Br)cc(Br)c2c1C(=Cc1ccc3c(c1)Cc1ccccc1-3)C(=O)N2 [10728/H06] | −22.8%
29 | Cc1c(Br)cc(Br)c2c1C(=Cc1cccc(C(F)(F)F)c1F)C(=O)N2 [10728/H07] | −25.8%
30 | Cc1c(Br)cc(Br)c2c1C(=Cc1c(F)cccc1C(F)(F)F)C(=O)N2 [10728/H09] | −6.1%
31 | Cc1c(Br)cc(Br)c2c1C(=Cc1ccccc1OCC(=O)O)C(=O)N2 [10728/H10] | −22.4%
32 | COc1cc(C=C2C(=O)Nc3c(Br)cc(Br)c(C)c32)cc2c1OCO2 [10728/H11] | −25.6%
33 | COc1ccc2ccccc2c1C=C1C(=O)Nc2c(Br)cc(Br)c(C)c21 [10729/H02] | −10.7%
34 | COc1ccc(C=C2C(=O)Nc3c(Br)cc(Br)c(C)c32)c2ccccc12 [10729/H03] | 30.3%
35 | CSc1ccc(C=C2C(=O)Nc3c(Br)cc(Br)c(C)c32)cc1 [10729/H04] | −4.4%
36 | Cc1ccsc1C=C1C(=O)Nc2c(Br)cc(Br)c(C)c21 [10729/H05] | −4.4%
37 | Cc1c(Br)cc(Br)c2c1C(=Cc1cccc(Oc3ccccc3)c1)C(=O)N2 [10729/H06] | −10.3%
38 | Cc1c(Br)cc(Br)c2c1C(=Cc1ccccn1)C(=O)N2 [10729/H07] | 30.0%
39 | Cc1c(Br)cc(Br)c2c1C(=Cc1cccnc1)C(=O)N2 [10729/H08] | 8.7%
40 | Cc1c(Br)cc(Br)c2c1C(=Cc1ccncc1)C(=O)N2 [10729/H09] | 8.0%
41 | Cc1c(Br)cc(Br)c2c1C(=Cc1ccc(N3CCCC3)cc1)C(=O)N2 [10729/H10] | 2.1%
42 | Cc1c(Br)cc(Br)c2c1C(=CC1C=CCCC1)C(=O)N2 (stereo not drawn) [10729/H11] | 0.8%
43 | COc1ccc(C=C2C(=O)Nc3c(Br)cc(Br)c(C)c32)c(OC)c1OC [10730/H02] | 12.6%
44 | COc1cc(OC)c(OC)cc1C=C1C(=O)Nc2c(Br)cc(Br)c(C)c21 [10730/H03] | −3.4%
45 | COc1cc(C=C2C(=O)Nc3c(Br)cc(Br)c(C)c32)cc(OC)c1OC [10730/H04] | −29.5%
46 | CC(=O)n1cc(C=C2C(=O)Nc3c(Br)cc(Br)c(C)c32)c2ccccc21 [10730/H05] | −20.1%
47 | Cc1c(Br)cc(Br)c2c1C(=Cc1ccc(-c3ccccc3Cl)o1)C(=O)N2 [10730/H07] | −3.2%
48 | Cc1c(Br)cc(Br)c2c1C(=Cc1cc3ccccc3nc1Cl)C(=O)N2 [10730/H08] | −15.8%
49 | COC1CC(C=C2C(=O)Nc3c(Br)cc(Br)c(C)c32)C(OC)O1 (stereo not drawn) [10730/H10] | 1.7%
50 | Cc1cc(C=C2C(=O)Nc3c(Br)cc(Br)c(C)c32)oc1C [10730/H11] | 26.4%
51 | CCn1c2ccccc2c2cc(C=C3C(=O)Nc4c(Br)cc(Br)c(C)c43)ccc21 [10731/H02] | −9.5%
52 | Cc1cc2occ(C=C3C(=O)Nc4c(Br)cc(Br)c(C)c43)c(=O)c2cc1C [10731/H03] | −1.5%
53 | C=C(C)C1CC=C(C=C2C(=O)Nc3c(Br)cc(Br)c(C)c32)CC1 (stereo not drawn) [10731/H04] | −1.7%
54 | Cc1c(Br)cc(Br)c2c1C(=Cc1coc3ccc(C(C)C)cc3c1=O)C(=O)N2 [10731/H05] | −3.6%
